From US10329294B2, “Pyrazolopyrimidine inhibitors of IRAK4 activity” (MERCK SHARP & DOHME CORP., priority 2015, dated 2019)
Where a name gives a salt, the structure may show the parent alone.

molecular target: IRAK4 (Homo sapiens (Human), UniProt Q9NWZ3); test: IRAK4 Kinase Assay; assay type: biochemical; details: IMAP fluorescence polarization, 0.5 nM GST tagged IRAK4, 100 μM ATP, 30 minutes at 25° C.; read-out: IRAK4 IC50
Sequence (Q9NWZ3 whole entry): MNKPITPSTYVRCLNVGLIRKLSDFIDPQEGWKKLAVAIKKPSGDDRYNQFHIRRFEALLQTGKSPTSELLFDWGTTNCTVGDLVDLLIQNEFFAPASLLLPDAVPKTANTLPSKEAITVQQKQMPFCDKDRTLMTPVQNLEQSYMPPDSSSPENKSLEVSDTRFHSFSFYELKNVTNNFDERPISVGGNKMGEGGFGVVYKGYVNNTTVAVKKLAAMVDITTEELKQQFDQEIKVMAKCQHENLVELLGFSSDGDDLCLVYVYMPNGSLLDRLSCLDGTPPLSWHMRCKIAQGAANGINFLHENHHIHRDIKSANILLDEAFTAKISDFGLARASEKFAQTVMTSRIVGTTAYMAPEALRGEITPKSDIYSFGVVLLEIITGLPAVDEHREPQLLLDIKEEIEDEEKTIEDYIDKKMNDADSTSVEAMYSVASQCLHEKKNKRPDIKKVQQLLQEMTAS

Compared with `Cn1cc(NC(=O)c2cnn3ccc(N4CC5CC4CN5)nc23)c(C(F)(F)F)n1` (stereo not drawn) [Example 13, 5-(2,5-diazabicyclo[2.2.1]hept-2-yl)-N-[1-methyl-3-(trifluoromethyl)-1H-pyrazol-4-yl]pyrazolo[1,5-a]pyrimidine-3-carboxamide hydrochloride], `CC(C)(C)n1cc(NC(=O)c2cnn3ccc(N4CC5CCC4CN5)nc23)c(C(F)(F)F)n1` (stereo not drawn) [Example 50, N-[1-tert-butyl-3-(trifluoromethyl)-1H-pyrazol-4-yl]-5-(2,5-diazabicyclo[2.2.2]oct-2-yl)pyrazolo[1,5-a]pyrimidine-3-carboxamide trifluoroacetate] is 2-fold lower in IC50: 179 nM for the first, 90 nM for the second. The second is the more potent here.

First: Cn1cc(NC(=O)c2cnn3ccc(NC4CNCC(F)(F)C4)nc23)c(C(F)(F)F)n1 (stereo not drawn) [Example 217, 5-[(5,5-difluoropiperidin-3-yl)amino]-N-[1-methyl-3-(trifluoromethyl)-1H-pyrazol-4-yl]pyrazolo[1,5-a]pyrimidine-3-carboxamide]
Second: Cn1cc(NC(=O)c2cnn3ccc(N[C@@H]4CCCC(F)[C@@H]4N)nc23)c(C(F)(F)F)n1 (single isomer, unassigned) [Example 203, 5-{[(1R,2R)- or (1S,2S)-2-amino-3-fluorocyclohexyl]amino}-N-[1-methyl-3-(trifluoromethyl)-1H-pyrazol-4-yl]pyrazolo[1,5-a]pyrimidine-3-carboxamide]
The IC50 of the first is 6.7-fold higher: 47 nM for the first, 7 nM for the second. The second is the more potent here.

First: Cn1cc(NC(=O)c2cnn3ccc(N[C@H]4CNC[C@H](F)C4)nc23)c(C(F)F)n1 [Example 261, N-[3-(difluoromethyl)-1-methyl-1H-pyrazol-4-yl]-5-{[(3R,5R)-5-fluoropiperidin-3-yl]amino}pyrazolo[1,5-a]pyrimidine-3-carboxamide trifluoroacetate]
Second: Cn1cc(NC(=O)c2cnn3ccc(N[C@@H]4CNC[C@H](F)C4)nc23)c(C(F)F)n1 [Example 259, N-[3-(difluoromethyl)-1-methyl-1H-pyrazol-4-yl]-5-{[(3S,5R)-5-fluoropiperidin-3-yl]amino}pyrazolo[1,5-a]pyrimidine-3-carboxamide]
The IC50 of the first is 310-fold lower: 0.5 nM for the first, 156 nM for the second. The first is the more potent here.

Compared with `N[C@@H]1[C@H](Nc2ccn3ncc(C(=O)Nc4ccsc4Br)c3n2)CCCC1(F)F` [Example 128, 5-{[(1R,2R)-2-amino-3,3-difluorocyclohexyl]amino}-N-(2-bromothiophen-3-yl)pyrazolo[1,5-a]pyrimidine-3-carboxamide trifluoroacetate], `N#Cc1cscc1NC(=O)c1cnn2ccc(N[C@@H]3CCCC(F)(F)[C@@H]3N)nc12` [Example 143, 5-{[(1R,2R)-2-amino-3,3-difluorocyclohexyl]amino}-N-(4-cyanothiophen-3-yl)pyrazolo[1,5-a]pyrimidine-3-carboxamide] is 6.5-fold lower in IC50: 1240 nM for the first, 192 nM for the second.

Going from `Cn1ncc(NC(=O)c2cnn3ccc(N[C@@H]4CCCC[C@@H]4N)nc23)c1C(F)(F)F` [Example 166, 5-{[(1R,2S)-2-aminocyclohexyl]amino}-N-[1-methyl-5-(trifluoromethyl)-1H-pyrazol-4-yl]pyrazolo[1,5-a]pyrimidine-3-carboxamide trifluoroacetate] to `N[C@H]1CCCC[C@H]1Nc1ccn2ncc(C(=O)Nc3cn(C(F)F)nc3C(F)(F)F)c2n1` [Example 296, 5-{[(1R,2S)-2-aminocyclohexyl]amino}-N-[1-(difluoromethyl)-3-(trifluoromethyl)-1H-pyrazol-4-yl]pyrazolo[1,5-a]pyrimidine-3-carboxamide trifluoroacetate], the IC50 falls from 15 nM to 2 nM (7.5-fold). The second is the more potent here.

Going from `Cn1cc(NC(=O)c2cnn3ccc(NC4CNCCC4F)nc23)c(C(F)F)n1` (single isomer, unassigned) [Example 234, N-[3-(difluoromethyl)-1-methyl-1H-pyrazol-4-yl]-5-[(3R or S, 4R or S-4-fluoropiperidin-3-yl)amino]pyrazolo[1,5-a]pyrimidine-3-carboxamide] to `Cn1cc(NC(=O)c2cnn3ccc(N[C@H]4CNCCC4(F)F)nc23)c(C(F)F)n1` (single isomer, unassigned) [Example 242, N-[(R or S)-3-(difluoromethyl)-1-methyl-1H-pyrazol-4-yl]-5-[(4,4-difluoropiperidin-3-yl)amino]pyrazolo[1,5-a]pyrimidine-3-carboxamide trifluoroacetate], the IC50 falls from 5 nM to 2 nM (2.5-fold).

`Cn1cc(NC(=O)c2cnn3ccc(N4CCNCC(F)C4)nc23)c(C(F)(F)F)n1` (stereo not drawn) [Example 27, 5-(6-fluoro-1,4-diazepan-1-yl)-N-[1-methyl-3-(trifluoromethyl)-1H-pyrazol-4-yl]pyrazolo[1,5-a]pyrimidine-3-carboxamide trifluoroacetate] and `Cn1cc(NC(=O)c2cnn3ccc(N4CCNCC4C(F)(F)F)nc23)c(C(F)(F)F)n1` (stereo not drawn) [Example 215, N-[1-methyl-3-(trifluoromethyl)-1H-pyrazol-4-yl]-5-[2-(trifluoromethyl)piperazin-1-yl]pyrazolo[1,5-a]pyrimidine-3-carboxamide trifluoroacetate] are within 1.5-fold of each other in IC50: 149 nM for the first, 121 nM for the second.

Going from `COCCc1nn(C)cc1NC(=O)c1cnn2ccc(N[C@@H]3CCCC[C@@H]3N)nc12` [Example 283, 5-{[(1R,2S)-2-aminocyclohexyl]amino}-N-[3-(2-methoxyethyl)-1-methyl-1H-pyrazol-4-yl]pyrazolo[1,5-a]pyrimidine-3-carboxamide trifluoroacetate] to `Cn1cc(NC(=O)c2cnn3ccc(NC4CNCCC4F)nc23)c(C(F)F)n1` (single isomer, unassigned) [Example 236, N-[3-(difluoromethyl)-1-methyl-1H-pyrazol-4-yl]-5-[(3R or S, 4R or S-4-fluoropiperidin-3-yl)amino]pyrazolo[1,5-a]pyrimidine-3-carboxamide], the IC50 falls from 76 nM to 0.6 nM (130-fold).

Compared with `O=C(Nc1cscc1Br)c1cnn2ccc(N3CC4CCC3CN4)nc12` (stereo not drawn) [Example 124, N-(4-bromothiophen-3-yl)-5-(2,5-diazabicyclo[2.2.2]oct-2-yl)pyrazolo[1,5-a]pyrimidine-3-carboxamide trifluoroacetate], `Cn1cc(NC(=O)c2cnn3ccc(N4C[C@H]5CC[C@@H]4CN5)nc23)c(Br)n1` (single isomer, unassigned) [Example 165, N-(3-bromo-1-methyl-1H-pyrazol-4-yl)-5-[(1S,4S)- or (1R,4R)-2,5-diazabicyclo[2.2.2]oct-2-yl]pyrazolo[1,5-a]pyrimidine-3-carboxamide trifluoroacetate] is 13-fold lower in IC50: 245 nM for the first, 19 nM for the second.

Compared with `Cn1cc(NC(=O)c2cnn3ccc(N4C5CCC4CNC5)nc23)c(C(F)(F)F)n1` [Example 226, 5-(3,8-diazabicyclo[3.2.1]oct-8-yl)-N-[1-methyl-3-(trifluoromethyl)-1H-pyrazol-4-yl]pyrazolo[1,5-a]pyrimidine-3-carboxamide trifluoroacetate], `Cn1cc(NC(=O)c2cnn3ccc(N4CCCNCC45CC5)nc23)c(C(F)(F)F)n1` [Example 98, 5-(4,8-diazaspiro[2.6]non-4-yl)-N-[1-methyl-3-(trifluoromethyl)-1H-pyrazol-4-yl]pyrazolo[1,5-a]pyrimidine-3-carboxamide trifluoroacetate] is 16-fold higher in IC50: 2 nM for the first, 33 nM for the second.

Going from `N#Cc1ccccc1NC(=O)c1cnn2ccc(N[C@@H]3CCCC[C@@H]3O)nc12` [Example 266, N-(2-cyanophenyl)-5-{[(1R,2S)-2-hydroxycyclohexyl]amino}pyrazolo[1,5-a]pyrimidine-3-carboxamide trifluoroacetate] to `N#Cc1ccccc1NC(=O)c1cnn2ccc(NC3CCCCNC3)nc12` (stereo not drawn) [Example 272, 5-(azepan-3-ylamino)-N-(2-cyanophenyl)pyrazolo[1,5-a]pyrimidine-3-carboxamide trifluoroacetate], the IC50 falls from 562 nM to 57 nM (9.9-fold).

`Cn1cc(NC(=O)c2cnn3ccc(N4C[C@H]5CC[C@@H]4CN5)nc23)c(C(F)F)n1` (single isomer, unassigned) [Example 161, 5-[(1S,4S)- or (1R,4R)-2,5-diazabicyclo[2.2.2]oct-2-yl]-N-[3-(difluoromethyl)-1-methyl-1H-pyrazol-4-yl]pyrazolo[1,5-a]pyrimidine-3-carboxamide trifluoroacetate] and `Cn1cc(NC(=O)c2cnn3ccc(N4CCC(F)(F)[C@@H](N)C4)nc23)c(C(F)F)n1` (single isomer, unassigned) [Example 189, 5-[(4R)- or (4S)-(3-amino-4,4-difluoropiperidin-1-yl)-N-[3-(difluoromethyl)-1-methyl-1H-pyrazol-4-yl]pyrazolo[1,5-a]pyrimidine-3-carboxamide trifluoroacetate] are the same in IC50: 2 nM for the first, 2 nM for the second.

Going from `N#Cc1cscc1NC(=O)c1cnn2ccc(N3CCCNCC3)nc12` [Example 141, N-(4-cyanothiophen-3-yl)-5-(1,4-diazepan-1-yl)pyrazolo[1,5-a]pyrimidine-3-carboxamide trifluoroacetate] to `O=C(Nc1ccccc1Br)c1cnn2ccc(N3CCCNCC3)nc12` [Example 109, N-(2-bromophenyl)-5-(1,4-diazepan-1-yl)pyrazolo[1,5-a]pyrimidine-3-carboxamide trifluoroacetate], the IC50 rises from 359 nM to 3360 nM (9.4-fold). The first is the more potent here.

Going from `O=C(Nc1cn(C(F)F)nc1C(F)(F)F)c1cnn2ccc(N[C@@H]3CCCC[C@@H]3O)nc12` [Example 72, N-[1-(difluoromethyl)-3-(trifluoromethyl)-1H-pyrazol-4-yl]-5-{[(1R,2S)-2-hydroxycyclohexyl]amino} pyrazolo[1,5-a]pyrimidine-3-carboxamide trifluoroacetate] to `Cn1cc(NC(=O)c2cnn3ccc(N[C@H]4CNC[C@@H](F)C4)nc23)c(C(F)F)n1` [Example 258, N-[3-(difluoromethyl)-1-methyl-1H-pyrazol-4-yl]-5-{[(3R,5S)-5-fluoropiperidin-3-yl]amino}pyrazolo[1,5-a]pyrimidine-3-carboxamide hydrochloride], the IC50 falls from 141 nM to 0.5 nM (280-fold).

`N#Cc1ccccc1NC(=O)c1cnn2ccc(N3CCNCC4(CC4)C3)nc12` [Example 267, N-(2-cyanophenyl)-5-(5,8-diazaspiro[2.6]non-5-yl)pyrazolo[1,5-a]pyrimidine-3-carboxamide trifluoroacetate] and `N#Cc1ccccc1NC(=O)c1cnn2ccc(N[C@@H]3CCCC(F)(F)[C@@H]3N)nc12` [Example 268, 5-{[(1R,2R)-2-amino-3,3-difluorocyclohexyl]amino}-N-(2-cyanophenyl)pyrazolo[1,5-a]pyrimidine-3-carboxamide] are within 1.5-fold of each other in IC50: 351 nM for the first, 268 nM for the second.
